The source made the active and inactive calls. The calls are words filed in the database; no cut-off is given here.
Assays:
Adenosine receptor A1 [1] = target: T1, Adenosine receptor A1 (Mus musculus, UniProt Q60612); assay: Displacement of [3H]N6-R-phenylisopropyladenosine from mouse A1A adenosine receptor expressed in CHO cell membranes after 60 mins by scintillation proximity assay
T1 sequence (Q60612 whole entry): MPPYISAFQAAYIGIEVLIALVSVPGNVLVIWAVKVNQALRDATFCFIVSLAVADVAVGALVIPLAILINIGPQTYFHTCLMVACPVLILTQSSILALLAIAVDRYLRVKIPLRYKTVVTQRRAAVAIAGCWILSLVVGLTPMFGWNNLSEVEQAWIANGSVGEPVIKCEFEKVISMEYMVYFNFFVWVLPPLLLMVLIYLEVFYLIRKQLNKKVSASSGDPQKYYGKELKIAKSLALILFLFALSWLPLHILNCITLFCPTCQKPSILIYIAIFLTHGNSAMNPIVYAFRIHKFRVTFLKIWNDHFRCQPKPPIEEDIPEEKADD

[2] = Toxicity in Sprague-Dawley rat assessed as increase in blood pressure at 0.02 mg/kg, iv; format: organism-based; settings: in vivo
Adenosine receptor A3 [3] = target: T2, Adenosine receptor A3 (Mus musculus, UniProt Q61618); assay: Displacement of [125I]N6-(4-amino-3-iodobenzyl)adenosine-5-N-methyluronamide from mouse A3A adenosine receptor expressed in CHO cell membranes after 60 mins by scintillation proximity assay
T2 sequence (Q61618 whole entry): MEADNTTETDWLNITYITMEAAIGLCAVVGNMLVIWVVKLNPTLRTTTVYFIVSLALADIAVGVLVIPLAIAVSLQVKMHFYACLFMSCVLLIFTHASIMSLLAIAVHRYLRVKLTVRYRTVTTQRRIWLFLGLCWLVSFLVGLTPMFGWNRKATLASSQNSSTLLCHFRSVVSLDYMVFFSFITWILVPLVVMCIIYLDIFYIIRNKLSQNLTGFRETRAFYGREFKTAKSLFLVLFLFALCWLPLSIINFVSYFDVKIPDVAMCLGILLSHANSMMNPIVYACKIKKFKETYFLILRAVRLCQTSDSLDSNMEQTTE

Adenosine receptor A2a [4] = target: Adenosine receptor A2a (Mus musculus, UniProt Q60613); assay: Displacement of [3H]2-[p-(2-carboxyethyl)phenylethylamino]-5-N-ethylcarboxamidoadenosine from mouse A2A adenosine receptor expressed in HEK293 cell membranes after 60 mins by scintillation proximity assay
Chain of Adenosine receptor A2a (Mus musculus, UniProt Q60613) (Q60613 whole entry): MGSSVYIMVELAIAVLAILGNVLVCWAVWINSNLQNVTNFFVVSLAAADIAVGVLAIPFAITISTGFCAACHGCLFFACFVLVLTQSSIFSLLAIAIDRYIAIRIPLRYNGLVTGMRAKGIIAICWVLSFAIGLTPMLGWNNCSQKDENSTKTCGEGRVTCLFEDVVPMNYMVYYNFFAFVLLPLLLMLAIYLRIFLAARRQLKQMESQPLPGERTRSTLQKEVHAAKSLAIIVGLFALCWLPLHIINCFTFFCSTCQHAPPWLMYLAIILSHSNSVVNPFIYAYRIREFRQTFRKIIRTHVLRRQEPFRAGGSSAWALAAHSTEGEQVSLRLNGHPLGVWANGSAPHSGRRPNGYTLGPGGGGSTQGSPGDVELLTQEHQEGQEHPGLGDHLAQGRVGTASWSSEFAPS

[5] = target: Adenosine receptor A1 (Rattus norvegicus) (UniProt P25099); settings: CHO-K1, 10 uM
Chain of Adenosine receptor A1 (Rattus norvegicus) (P25099 whole entry): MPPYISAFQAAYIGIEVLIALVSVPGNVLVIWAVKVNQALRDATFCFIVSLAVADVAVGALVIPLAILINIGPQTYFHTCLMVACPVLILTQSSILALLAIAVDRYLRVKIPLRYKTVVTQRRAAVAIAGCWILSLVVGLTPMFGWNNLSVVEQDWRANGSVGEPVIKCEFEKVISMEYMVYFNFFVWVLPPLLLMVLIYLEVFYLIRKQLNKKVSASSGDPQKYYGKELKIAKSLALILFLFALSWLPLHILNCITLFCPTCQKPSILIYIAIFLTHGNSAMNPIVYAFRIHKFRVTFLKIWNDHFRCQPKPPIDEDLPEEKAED

[6] = target: Alpha-2A adrenergic receptor (Homo sapiens, UniProt P08913); assay: Inhibition of alpha2a receptor (unknown origin)
Chain of Alpha-2A adrenergic receptor (P08913 whole entry): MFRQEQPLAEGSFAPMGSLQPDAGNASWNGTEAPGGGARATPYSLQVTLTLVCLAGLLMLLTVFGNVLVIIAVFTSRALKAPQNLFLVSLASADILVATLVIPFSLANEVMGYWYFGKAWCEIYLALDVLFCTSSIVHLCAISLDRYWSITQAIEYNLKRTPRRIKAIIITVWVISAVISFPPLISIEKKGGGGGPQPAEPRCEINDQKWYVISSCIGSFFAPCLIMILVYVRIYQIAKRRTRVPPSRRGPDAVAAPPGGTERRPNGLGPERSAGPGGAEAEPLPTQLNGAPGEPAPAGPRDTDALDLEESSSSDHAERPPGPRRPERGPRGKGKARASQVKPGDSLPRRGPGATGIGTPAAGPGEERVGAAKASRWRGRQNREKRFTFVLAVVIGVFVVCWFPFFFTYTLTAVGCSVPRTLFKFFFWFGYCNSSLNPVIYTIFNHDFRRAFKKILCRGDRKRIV

[7] = target: T3, 5-hydroxytryptamine receptor 2C (Homo sapiens, UniProt P28335); assay: Inhibition of 5HT2C (unknown origin)
T3 sequence (P28335 whole entry): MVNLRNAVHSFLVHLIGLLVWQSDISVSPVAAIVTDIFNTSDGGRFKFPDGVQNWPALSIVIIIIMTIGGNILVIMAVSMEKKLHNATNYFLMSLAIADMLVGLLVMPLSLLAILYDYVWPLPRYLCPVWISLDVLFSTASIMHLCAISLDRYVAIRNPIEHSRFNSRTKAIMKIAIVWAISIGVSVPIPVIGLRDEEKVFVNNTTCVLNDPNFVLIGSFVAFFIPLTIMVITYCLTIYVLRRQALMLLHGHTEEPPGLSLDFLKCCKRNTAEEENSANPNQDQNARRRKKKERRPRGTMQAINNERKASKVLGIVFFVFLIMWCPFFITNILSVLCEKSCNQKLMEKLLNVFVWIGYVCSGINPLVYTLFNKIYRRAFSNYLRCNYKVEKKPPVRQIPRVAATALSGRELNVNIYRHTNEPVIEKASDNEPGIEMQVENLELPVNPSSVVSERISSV

Adenosine receptor A2a [8] = target: Adenosine receptor A2a (Homo sapiens, UniProt P29274); assay: Displacement of [3H]2-[p-(2-carboxyethyl)phenylethylamino]-5-N-ethylcarboxamidoadenosine from human A2A adenosine receptor expressed in HEK293 cell membranes at 10 uM after 60 mins by scintillation proximity assay relative to adenosine 5-N-ethyluronamide
Chain of Adenosine receptor A2a (Homo sapiens, UniProt P29274) (P29274 whole entry): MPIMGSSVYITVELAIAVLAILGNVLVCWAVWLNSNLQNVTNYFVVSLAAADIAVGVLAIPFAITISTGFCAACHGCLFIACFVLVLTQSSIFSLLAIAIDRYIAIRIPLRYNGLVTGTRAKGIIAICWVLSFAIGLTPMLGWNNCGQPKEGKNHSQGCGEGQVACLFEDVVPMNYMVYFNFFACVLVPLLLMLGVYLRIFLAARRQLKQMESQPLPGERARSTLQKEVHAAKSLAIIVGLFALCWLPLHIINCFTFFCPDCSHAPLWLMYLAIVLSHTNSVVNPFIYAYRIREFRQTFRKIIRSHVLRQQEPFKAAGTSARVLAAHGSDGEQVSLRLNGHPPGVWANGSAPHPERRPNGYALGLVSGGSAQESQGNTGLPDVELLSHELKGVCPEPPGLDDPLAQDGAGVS

Adenosine receptor A1 [9] = target: T4, Adenosine receptor A1 (Homo sapiens, UniProt P30542); assay: Displacement of [3H]N6-R-phenylisopropyladenosine from human A1A adenosine receptor expressed in CHO cell membranes after 60 mins by scintillation proximity assay
T4 sequence (P30542 whole entry): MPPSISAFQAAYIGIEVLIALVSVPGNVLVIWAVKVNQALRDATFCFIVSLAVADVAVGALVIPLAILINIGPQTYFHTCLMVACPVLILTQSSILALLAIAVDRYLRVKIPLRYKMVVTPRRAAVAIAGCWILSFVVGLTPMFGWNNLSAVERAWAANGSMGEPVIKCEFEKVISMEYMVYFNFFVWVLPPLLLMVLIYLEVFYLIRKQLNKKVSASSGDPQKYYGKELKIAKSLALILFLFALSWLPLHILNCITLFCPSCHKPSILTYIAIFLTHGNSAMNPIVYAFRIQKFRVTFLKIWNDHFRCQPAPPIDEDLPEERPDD

Adenosine receptor A3 [10] = target: T5, Adenosine receptor A3 (Homo sapiens, UniProt P0DMS8); assay: Displacement of [125I]N6-(4-amino-3-iodobenzyl)adenosine-5-N-methyluronamide from human A3A adenosine receptor expressed in CHO cell membranes after 60 mins by scintillation proximity assay
T5 sequence (P0DMS8 whole entry): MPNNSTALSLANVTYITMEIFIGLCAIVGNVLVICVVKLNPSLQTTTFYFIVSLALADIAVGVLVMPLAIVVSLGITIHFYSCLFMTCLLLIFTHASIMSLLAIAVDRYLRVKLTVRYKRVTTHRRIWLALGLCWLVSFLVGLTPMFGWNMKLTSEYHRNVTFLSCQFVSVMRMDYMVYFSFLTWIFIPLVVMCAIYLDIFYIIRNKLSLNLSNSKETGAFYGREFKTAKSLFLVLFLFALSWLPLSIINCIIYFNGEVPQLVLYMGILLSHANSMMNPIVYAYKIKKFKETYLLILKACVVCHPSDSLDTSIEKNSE

Translocator protein = Translocator protein (Homo sapiens, UniProt P30536); assay: Inhibition of TSPO (unknown origin)
Chain of Translocator protein (P30536 whole entry): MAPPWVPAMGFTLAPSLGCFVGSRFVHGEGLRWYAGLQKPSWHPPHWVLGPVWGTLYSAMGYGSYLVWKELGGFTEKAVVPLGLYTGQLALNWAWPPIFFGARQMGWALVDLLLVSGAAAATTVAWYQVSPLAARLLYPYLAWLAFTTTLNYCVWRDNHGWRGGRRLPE

[11] = target: 5-hydroxytryptamine receptor 2B (Homo sapiens, UniProt P41595); assay: Inhibition of 5HT2B (unknown origin)
Chain of 5-hydroxytryptamine receptor 2B (P41595 whole entry): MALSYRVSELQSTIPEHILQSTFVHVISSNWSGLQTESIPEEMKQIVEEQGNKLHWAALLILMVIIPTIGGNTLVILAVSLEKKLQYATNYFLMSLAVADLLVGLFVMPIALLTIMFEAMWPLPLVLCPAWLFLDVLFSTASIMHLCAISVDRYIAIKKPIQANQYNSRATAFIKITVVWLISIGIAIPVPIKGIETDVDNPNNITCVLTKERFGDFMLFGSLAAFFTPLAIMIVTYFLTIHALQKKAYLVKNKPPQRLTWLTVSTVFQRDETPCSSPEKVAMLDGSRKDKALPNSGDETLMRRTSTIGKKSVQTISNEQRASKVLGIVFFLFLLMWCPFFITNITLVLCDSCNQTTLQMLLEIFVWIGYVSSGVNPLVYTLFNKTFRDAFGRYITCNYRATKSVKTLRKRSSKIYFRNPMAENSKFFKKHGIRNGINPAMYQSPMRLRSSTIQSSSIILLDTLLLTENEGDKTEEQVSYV

Mus musculus [12] = assay: Induction of hypothermia in C57BL/6J mouse assessed as activity counts at 3 mg/kg, ip measured at 60 mins post dose (reference value: 15.5 +/- 5.5); format: functional
[13] = Stability in simulated gastric fluid after 120 mins; format: ADME; settings: read-out: Stability
[14] = Protein binding in mouse plasma; format: ADME, cell-free
Cytochrome P450 2C9 = Cytochrome P450 2C9 (Homo sapiens, UniProt P11712)
Chain of Cytochrome P450 2C9 (P11712 whole entry): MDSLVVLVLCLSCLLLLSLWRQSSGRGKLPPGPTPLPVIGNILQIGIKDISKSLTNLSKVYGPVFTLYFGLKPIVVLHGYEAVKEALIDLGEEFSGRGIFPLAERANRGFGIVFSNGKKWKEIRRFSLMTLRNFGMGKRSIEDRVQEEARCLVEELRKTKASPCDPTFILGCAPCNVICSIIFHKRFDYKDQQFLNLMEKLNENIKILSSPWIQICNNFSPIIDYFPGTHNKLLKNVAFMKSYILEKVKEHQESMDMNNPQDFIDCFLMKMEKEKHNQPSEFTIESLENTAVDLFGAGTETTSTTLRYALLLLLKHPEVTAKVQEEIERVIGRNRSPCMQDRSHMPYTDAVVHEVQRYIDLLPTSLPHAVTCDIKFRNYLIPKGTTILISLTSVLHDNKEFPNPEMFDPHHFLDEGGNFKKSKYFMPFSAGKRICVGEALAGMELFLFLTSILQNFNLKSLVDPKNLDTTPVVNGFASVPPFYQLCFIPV

[15] = Elimination half life in CD1 mouse at 1 to 10 mg/kg, po; format: ADME, organism-based; settings: in vivo
[16] = Oral bioavailability in CD1 mouse at 3 mg/kg; format: ADME, organism-based; settings: in vivo
Adenosine receptor A1 [17] = target: Adenosine receptor A1 (Rattus norvegicus, UniProt P25099); assay: Agonist activity at rat A1A adenosine receptor expressed in CHO-K1 cell membranes incubated for 60 mins by [35S]GTPgammaS binding assay; format: functional
Chain of Adenosine receptor A1 (Rattus norvegicus, UniProt P25099) (P25099 whole entry): as the sequence (P25099 whole entry) above

[18] = Toxicity in rhesus monkey at 1 to 3 mg/kg dosed in food treat measured up to 4 hrs post dose; format: organism-based, Macaca mulatta; settings: in vivo, po
[19] = Stability in human liver microsomes; format: ADME, Microsome
[20] = Toxicity in Sprague-Dawley rat assessed as reduction in heart rate at 3 mg/kg, ip; format: organism-based; settings: in vivo
Cytochrome P450 3A4 = Cytochrome P450 3A4 (Homo sapiens, UniProt P08684)
Chain of Cytochrome P450 3A4 (P08684 whole entry): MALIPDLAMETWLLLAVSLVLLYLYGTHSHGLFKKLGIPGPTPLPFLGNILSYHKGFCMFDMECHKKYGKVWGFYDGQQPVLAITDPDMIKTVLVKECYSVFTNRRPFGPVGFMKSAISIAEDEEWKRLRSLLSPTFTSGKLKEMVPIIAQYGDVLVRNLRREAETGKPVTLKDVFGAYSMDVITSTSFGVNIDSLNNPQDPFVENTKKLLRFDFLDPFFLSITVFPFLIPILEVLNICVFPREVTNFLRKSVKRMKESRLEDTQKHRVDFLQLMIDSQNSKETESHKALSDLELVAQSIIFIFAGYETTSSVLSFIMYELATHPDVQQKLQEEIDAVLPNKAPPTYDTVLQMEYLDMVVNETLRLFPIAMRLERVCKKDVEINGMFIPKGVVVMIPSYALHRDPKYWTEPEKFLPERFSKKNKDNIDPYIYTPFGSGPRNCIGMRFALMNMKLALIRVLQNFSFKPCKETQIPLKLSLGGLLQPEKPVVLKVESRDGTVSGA

[21] = Elimination half life in CD1 mouse at 3 to 30 mg/kg, ip; format: ADME, organism-based; settings: in vivo
[22] = Toxicity in cynomolgus monkey effect on clinical parameters at 0.5 mg/kg, iv or 1 mg/kg, po measured after 1 day post dose; format: organism-based, Macaca fascicularis; settings: in vivo, 24 h
[23] = Protein binding in rat plasma; format: ADME, cell-free
[24] = Oral bioavailability in cynomolgus monkey at 1 mg/kg; format: ADME, organism-based, Macaca fascicularis; settings: in vivo
[25] = Stability in simulated intestinal fluid; format: ADME; settings: simulated gi fluid
Cytochrome P450 2D6 = Cytochrome P450 2D6 (Homo sapiens, UniProt P10635)
Chain of Cytochrome P450 2D6 (P10635 whole entry): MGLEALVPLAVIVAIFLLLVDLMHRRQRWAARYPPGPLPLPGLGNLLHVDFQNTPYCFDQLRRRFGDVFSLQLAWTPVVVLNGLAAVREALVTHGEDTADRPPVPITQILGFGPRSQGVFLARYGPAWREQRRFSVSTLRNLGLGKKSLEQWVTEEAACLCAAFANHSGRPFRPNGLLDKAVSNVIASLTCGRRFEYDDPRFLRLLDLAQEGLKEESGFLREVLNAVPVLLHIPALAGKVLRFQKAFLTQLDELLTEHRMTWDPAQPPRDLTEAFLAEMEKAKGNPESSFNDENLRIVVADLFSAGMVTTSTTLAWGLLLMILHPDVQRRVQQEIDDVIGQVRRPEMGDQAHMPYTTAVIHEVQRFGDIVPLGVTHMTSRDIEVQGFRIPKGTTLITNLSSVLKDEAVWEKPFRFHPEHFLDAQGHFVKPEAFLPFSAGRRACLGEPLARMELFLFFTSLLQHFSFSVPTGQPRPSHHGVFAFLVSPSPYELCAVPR

[26] = Oral bioavailability in CD1 mouse at 1 mg/kg; format: ADME, organism-based; settings: in vivo
Mus musculus [27] = assay: Induction of hypothermia in C57BL/6J mouse assessed as body temperature at 3 mg/kg, ip measured at 60 mins post dose (reference value: 36.3 +/- 0.8 degC); format: functional
[28] = Toxicity in Sprague-Dawley rat assessed as increase in blood pressure at 3 mg/kg, ip; format: organism-based; settings: in vivo
Mus musculus [29] = assay: Induction of hypothermia in C57BL/6J mouse assessed as body temperature at […], icv measured up to 120 mins post dose; format: functional, organism-based
[30] = target: T6, Adenosine receptor A3 (Mus musculus) (UniProt Q61618); assay: Agonist activity at mouse A3AR adenosine receptor at 10 uM after 60 mins by [35S]GTPgammaS binding assay relative to (2S,3S,4R,5R)-5-(6-amino-9H-purin-9-yl)-N-ethyl-3,4-dihydroxytetrahydrofuran-2-carboxamide; format: functional
T6 sequence (whole entry): T2 sequence (Q61618 whole entry)

Mus musculus [31] = assay: Induction of hypothermia in C57BL/6J mouse assessed as body temperature at […], icv measured after 10 hrs post dose; format: functional, organism-based
[32] = target: Sigma intracellular receptor 2 (Homo sapiens, UniProt Q5BJF2); assay: Inhibition of sigma receptor 2 (unknown origin)
Chain of Sigma intracellular receptor 2 (Q5BJF2 whole entry): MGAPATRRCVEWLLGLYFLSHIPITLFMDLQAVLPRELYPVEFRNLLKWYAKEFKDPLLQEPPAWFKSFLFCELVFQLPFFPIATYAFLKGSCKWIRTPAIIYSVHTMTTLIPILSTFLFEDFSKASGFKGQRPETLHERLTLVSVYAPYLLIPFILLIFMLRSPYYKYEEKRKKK

[33] = Inhibition of rat benzodiazepine receptor
[34] = target: T7, Adenosine receptor A3 (Homo sapiens) (UniProt P0DMS8); assay: Displacement of [125I]N6-(4-amino-3-iodobenzyl)adenosine-5-N-methyluronamide from human A3A adenosine receptor expressed in CHO cell membranes at 10 uM after 60 mins by scintillation proximity assay relative to adenosine 5-N-ethyluronamide
T7 sequence (whole entry): T5 sequence (P0DMS8 whole entry)

Mus musculus [35] = species on record: Mus musculus; assay: Selectivity index, ratio of Ki for mouse A3A adenosine receptor to Ki for mouse A1A adenosine receptor expressed in CHO cell membranes after 60 mins by scintillation proximity assay
[36] = Fraction unbound in rat plasma at 10 uM; format: ADME, cell-free
[37] = Fraction unbound in human plasma at 10 uM; format: ADME, cell-free
[38] = target: T8, Adenosine receptor A1 (Mus musculus) (UniProt Q60612); assay: Agonist activity at mouse A1A adenosine receptor at 10 uM after 60 mins by [35S]GTPgammaS binding assay relative to (2S,3S,4R,5R)-5-(6-amino-9H-purin-9-yl)-N-ethyl-3,4-dihydroxytetrahydrofuran-2-carboxamide; format: functional
T8 sequence (whole entry): T1 sequence (Q60612 whole entry)

[39] = Fraction unbound in mouse plasma at 10 uM; format: ADME, cell-free

SMILES: OC[C@H]1O[C@@H](n2cnc3c(NC4CCCC4)nc(Cl)nc32)[C@H](O)[C@@H]1O
- Activity [2]: Toxic
- Ki (Adenosine receptor A2a [4]): 988 nM
- Emax [5]: 103%

SMILES: O[C@@H]1[C@H](O)[C@@H]2C[C@@H]2[C@H]1n1cnc2c(NC(C3CCC3)C3CCC3)nc(Cl)nc21
- Ki (Adenosine receptor A3 [3]): 385 nM
- Ki [6]: 6960 nM
- Ki [7]: 8320 nM
- inhibition (Adenosine receptor A2a [8]): 46%
- Ki (Adenosine receptor A1 [9]): 961 nM
- Ki (Adenosine receptor A3 [10]): 822 nM
- Ki (Translocator protein): 2380 nM
- Ki [11]: 2900 nM

SMILES: O[C@@H]1[C@H](O)[C@@H]2C[C@@H]2[C@H]1n1cnc2c(NC(C3CC3)C3CC3)nc(Cl)nc21
- Ki (Adenosine receptor A1 [1]): 5.2 nM
- Activity (Mus musculus [12]): 5.5
- remaining at 2 h [13]: 51%
- PPB [14]: 94%
- IC50 (Cytochrome P450 2C9): > 25000 nM
- beta t1/2 [15]: 5 to 11 h
- bioavailability [16]: 124%
- EC50 (Adenosine receptor A1 [17]): 6.65 nM
- Activity [18]: Non-Toxic
- Stability [19]: Stable
- Activity [20]: Toxic
- IC50 (Cytochrome P450 3A4): > 25000 nM
- beta t1/2 [21]: 2.5 to 4 h
- Activity [22]: Non-Toxic
- PPB [23]: 90%
- F [24]: 24%
- Stability [25]: Stable
- IC50 (Cytochrome P450 2D6): > 25000 nM
- bioavailability [26]: 98%
- T (Mus musculus [27]): 33.4 °C
- Activity [28]: Toxic

SMILES: OC[C@@]12C[C@@H]1[C@@H](n1cnc3c(NC(C4CCC4)C4CCC4)ncnc31)[C@H](O)[C@@H]2O
- Activity (Mus musculus [29]): Active
- Activity (Mus musculus [12]): 18.1
- Emax [30]: 92%
- Activity (Mus musculus [31]): Active
- Ki [32]: 753 nM
- Ki [33]: 4080 nM
- inhibition [34]: 51%
- Ratio Ki (Mus musculus [35]): 1730
- inhibition (Adenosine receptor A2a [8]): 34%
- Fu [36]: 17.8%
- Fu [37]: 14.6%
- Emax [38]: 97%
- Fu [39]: 27.5%
- T (Mus musculus [27]): 36.2 °C
